Calls of active or inactive are those of the source. How the calls were made is not given here.

The results in this text go back to PubChem BioAssay AID1259407 (Chemical Carcinogenesis Research Information System (CCRIS), 2018).

This series has as its system CCRIS mutagenicity, Ames/micronucleus/aberration tests. The series is described as follows: CCRIS mutagenicity studies.
The mark [1] stands for this setting: Test System: AMES SALMONELLA TYPHIMURIUM, Strain/Indicator: TA98, Metabolic Activation: NONE, Method: PREINCUBATION
[2] abbreviates: Test System: AMES SALMONELLA TYPHIMURIUM, Strain/Indicator: TA98, Metabolic Activation: NONE, Method: STANDARD PLATE.
Setting [3] is: Test System: AMES SALMONELLA TYPHIMURIUM, Strain/Indicator: TA100, Metabolic Activation: NONE, Method: STANDARD PLATE.

Turning to `OCc1ccco1`, the mutagenic call by setting is: (Test System: AMES SALMONELLA TYPHIMURIUM, Strain/Indicator: TA98, Metabolic Activation: HAMSTER LIVER S-9, AROCLOR 1254 (10%), Method: PREINCUBATION) “inactive; negative”; under setting [1], “inactive; negative”; under setting [2], “inactive; negative”; (Test System: AMES SALMONELLA TYPHIMURIUM, Strain/Indicator: TA98, Metabolic Activation: RAT LIVER S-9, AROCLOR 1254 (10%), Method: PREINCUBATION) “inactive; negative”; (Test System: AMES SALMONELLA TYPHIMURIUM, Strain/Indicator: TA98, Metabolic Activation: RAT, LIVER, S-9, AROCLOR 1254, Method: PREINCUBATION) “inactive; negative”; (Test System: AMES SALMONELLA TYPHIMURIUM, Strain/Indicator: TA98, Metabolic Activation: S-9, Method: STANDARD PLATE) “inactive; negative”. Besides, the mutagenic call (Test System: AMES SALMONELLA TYPHIMURIUM, Strain/Indicator: TA100, Metabolic Activation: HAMSTER LIVER S-9, AROCLOR 1254 (10%), Method: PREINCUBATION) was “inactive; negative”; the mutagenic call (Test System: AMES SALMONELLA TYPHIMURIUM, Strain/Indicator: TA100, Metabolic Activation: NONE, Method: PREINCUBATION) is “inactive; negative”; the mutagenic call under setting [3] was “inactive; negative”; the mutagenic call (Test System: AMES SALMONELLA TYPHIMURIUM, Strain/Indicator: TA100, Metabolic Activation: RAT LIVER S-9, AROCLOR 1254 (10%), Method: PREINCUBATION) is “inactive; negative”; the mutagenic call (Test System: AMES SALMONELLA TYPHIMURIUM, Strain/Indicator: TA100, Metabolic Activation: RAT, LIVER, S-9, AROCLOR 1254, Method: PREINCUBATION) is “inactive; negative”; the mutagenic call (Test System: AMES SALMONELLA TYPHIMURIUM, Strain/Indicator: TA100, Metabolic Activation: S-9, Method: STANDARD PLATE) is “inactive; negative”. The mutagenic call is, setting by setting: (Test System: AMES SALMONELLA TYPHIMURIUM, Strain/Indicator: TA102, Metabolic Activation: NONE, Method: PREINCUBATION) “inactive; negative”; (Test System: AMES SALMONELLA TYPHIMURIUM, Strain/Indicator: TA102, Metabolic Activation: RAT, LIVER, S-9, AROCLOR 1254, Method: PREINCUBATION) “inactive; negative”; (Test System: AMES SALMONELLA TYPHIMURIUM, Strain/Indicator: TA1535, Metabolic Activation: HAMSTER LIVER S-9, AROCLOR 1254 (10%), Method: PREINCUBATION) “inactive; negative”; (Test System: AMES SALMONELLA TYPHIMURIUM, Strain/Indicator: TA1535, Metabolic Activation: NONE, Method: PREINCUBATION) “inactive; negative”; (Test System: AMES SALMONELLA TYPHIMURIUM, Strain/Indicator: TA1535, Metabolic Activation: RAT LIVER S-9, AROCLOR 1254 (10%), Method: PREINCUBATION) “inactive; negative”; (Test System: AMES SALMONELLA TYPHIMURIUM, Strain/Indicator: TA1537, Metabolic Activation: HAMSTER LIVER S-9, AROCLOR 1254 (10%), Method: PREINCUBATION) “inactive; negative”. The mutagenic call was “inactive; negative” (Test System: AMES SALMONELLA TYPHIMURIUM, Strain/Indicator: TA1537, Metabolic Activation: NONE, Method: PREINCUBATION) and “inactive; negative” (Test System: AMES SALMONELLA TYPHIMURIUM, Strain/Indicator: TA1537, Metabolic Activation: RAT LIVER S-9, AROCLOR 1254 (10%), Method: PREINCUBATION).
As for `CCCN(CCC)c1c([N+](=O)[O-])cc(C(F)(F)F)cc1[N+](=O)[O-]`, the mutagenic call was “inactive; negative” (Test System: AMES SALMONELLA TYPHIMURIUM, Strain/Indicator: TA98, Metabolic Activation: LIVER S-9); “inactive; negative” (Test System: AMES SALMONELLA TYPHIMURIUM, Strain/Indicator: TA98, Metabolic Activation: NONE); “inactive; negative” (Test System: AMES SALMONELLA TYPHIMURIUM, Strain/Indicator: TA100, Metabolic Activation: LIVER S-9); “inactive; negative” (Test System: AMES SALMONELLA TYPHIMURIUM, Strain/Indicator: TA100, Metabolic Activation: NONE); “inactive; negative” (Test System: AMES SALMONELLA TYPHIMURIUM, Strain/Indicator: TA1535, Metabolic Activation: LIVER S-9); “inactive; negative” (Test System: AMES SALMONELLA TYPHIMURIUM, Strain/Indicator: TA1535, Metabolic Activation: NONE). In addition, the mutagenic call was “inactive; negative” (Test System: AMES SALMONELLA TYPHIMURIUM, Strain/Indicator: TA1537, Metabolic Activation: LIVER S-9); “inactive; negative” (Test System: AMES SALMONELLA TYPHIMURIUM, Strain/Indicator: TA1537, Metabolic Activation: NONE); “inactive; negative” (Test System: AMES SALMONELLA TYPHIMURIUM, Strain/Indicator: TA1538, Metabolic Activation: LIVER S-9); “inactive; negative” (Test System: AMES SALMONELLA TYPHIMURIUM, Strain/Indicator: TA1538, Metabolic Activation: NONE); “inactive; negative” (Test System: CHINESE HAMSTER V-79 CELLS, Strain/Indicator: HGPRT, Metabolic Activation: LIVER S-9); “inactive; negative” (Test System: CHINESE HAMSTER V-79 CELLS, Strain/Indicator: HGPRT, Metabolic Activation: NONE). Besides, the mutagenic call reads like this: (Test System: CHO-KI CELLS, Strain/Indicator: HGPRT, Metabolic Activation: LIVER S-9) “inactive; negative”; (Test System: CHO-KI CELLS, Strain/Indicator: HGPRT, Metabolic Activation: NONE) “inactive; negative”; (Test System: UDS HELA CELLS, Metabolic Activation: LIVER S-9) “inactive; negative”; (Test System: UDS HELA CELLS, Metabolic Activation: NONE) “inactive; negative”; (Test System: UDS RAT HEPATOCYTES, Metabolic Activation: NONE) “inactive; negative”.
As to `CC(=O)[O-].CC(=O)[O-].[Hg+2]`, the mutagenic call (End Point: IN VITRO MICRONUCLEUS, Test System: CHL/IU CELLS, Metabolic Activation: NONE) is “active; positive”; the mutagenic call (Test System: CHINESE HAMSTER OVARY, Strain/Indicator: AS52/6-THIOGUANINE, Metabolic Activation: NONE) was “active; positive”; the mutagenic call (Test System: CHINESE HAMSTER OVARY, Strain/Indicator: CHO-AS52/6-THIOGUANINE, Metabolic Activation: NONE) is “active; positive”.
Consider `CNNc1ccn([C@@H]2O[C@H](CO)[C@@H](O)[C@H]2O)c(=O)n1`, for which the mutagenic call (Test System: CHINESE HAMSTER V-79, Strain/Indicator: V-79/6-THIOGUANINE, Metabolic Activation: NONE, Method: REPLATING) was “active; positive”.
With `CC(=O)OCc1c2ccccc2c2ccc3cccc4ccc1c2c43`, the mutagenic call was “active; positive” under setting [2] and “active; positive” under setting [3].
As for `O=CN(O)c1ccc(F)cc1`, the mutagenic call under setting [2] is “inactive; negative”; the mutagenic call (Test System: AMES SALMONELLA TYPHIMURIUM, Strain/Indicator: TA98, Metabolic Activation: RAT, LIVER, S-9, AROCLOR 1254, Method: STANDARD PLATE) was “active; positive”; the mutagenic call under setting [3] is “inactive; negative”; the mutagenic call (Test System: AMES SALMONELLA TYPHIMURIUM, Strain/Indicator: TA100, Metabolic Activation: RAT, LIVER, S-9, AROCLOR 1254, Method: STANDARD PLATE) is “active; positive”.
`Cc1c([N+](=O)[O-])ccc2ccccc12`: the mutagenic call under setting [1] was “active; positive”.
In the case of `COc1cc(O)c2c(=O)c3c(OC)cc4c(c3oc2c1OC)C1CCOC1O4` (configuration not stated), the mutagenic call by setting is: (Test System: AMES SALMONELLA TYPHIMURIUM, Strain/Indicator: TA98, Metabolic Activation: RAT, LIVER, S-9, PHENOBARBITAL, Method: STANDARD PLATE) “inactive; negative”; (Test System: AMES SALMONELLA TYPHIMURIUM, Strain/Indicator: TA100, Metabolic Activation: RAT, LIVER, S-9, PHENOBARBITAL, Method: STANDARD PLATE) “inactive; negative”.
Turning to `CCc1ccc(/C=C/c2ccc(N)cc2)cc1`, the mutagenic call was “inactive; negative” under setting [2]; “active; positive” (Test System: AMES SALMONELLA TYPHIMURIUM, Strain/Indicator: TA98, Metabolic Activation: RAT LIVER S9, AROCLOR, Method: STANDARD PLATE); “inactive; negative” under setting [3]; “active; positive” (Test System: AMES SALMONELLA TYPHIMURIUM, Strain/Indicator: TA100, Metabolic Activation: RAT, LIVER, S9, AROCLOR, Method: STANDARD PLATE).
Consider `COCC(O)Cn1ccnc1[N+](=O)[O-]` (configuration not stated), for which the mutagenic call (Test System: E. COLI, Strain/Indicator: WP2 UVRA, Metabolic Activation: NONE, Method: STANDARD PLATE) was “active; positive”.
For the compound `CCC(C)Cl` (configuration not stated), the mutagenic call runs as follows: (Test System: Mouse lymphoma, Strain/Indicator: L5178Y (tk+/tk-), Metabolic Activation: None, Method: Suspension/plate) “inactive; negative”; (Test System: Mouse lymphoma, Strain/Indicator: L5178Y (tk+/tk-), Metabolic Activation: Rat, Liver, S-9, Aroclor 1254, Method: Suspension/plate) “inactive; negative”.
